SMILES strings stand for the structures.

This assay relates to CDK8 (phosphorylation of STAT1 at serine 727 in A549 cells). The assay can be described thus: Cell based Phospho-STAT1 assay (IFNγ-stimulated A549 cells, AlphaLISA). Conditions: Homo sapiens, A549, A549 cells, phospho-STAT1 after IFNγ stimulation. On the procedure: Determine Inhibitor Activity Against CDK8 in Cell Based Phospho-STAT1 Assay
This assay measures the phosphorylation of the CDK8 substrate STAT1 following Interferon-gamma (IFNγ) stimulation^1. The lung carcinoma cell line A549 is seeded in a 96 well plate in 50 μL of culture media at 5×10^4 cells/well and incubated at 37° C. overnight. Serial dilutions of compounds (in total volume of 50 μL culture media) are added to the cells and incubated at 37° C. for one hour. Human IFNγ (R&D Systems) is added to the cells at a 10 ng/mL final concentration. 4 wells containing DMSO treated cells stimulated with IFNγ serve as high controls and 4 wells containing DMSO treated unstimulated cells serve as low controls. After 30 minute IFNγ stimulation at 37° C., the culture media is removed and 50 μL of 1×AlphaLISA lysis buffer (PerkinElmer GA, USA) is added to each well. 5 μL cell lysate is transferred to a 384 well AlphaPlate (PerkinElmer GA, USA) and 5 μL containing 0.156 nM Phospho-STAT1 (Ser727) rabbit monoclonal antibody (Cell Signaling Technology), 0.156 nM Mouse Anti-STAT1 antibody (BD Transduction Laboratories), and 10 μg/mL Anti-rabbit IgG AlphaLISA acceptor beads (PerkinElmer GA, USA) diluted in 1× AlphaLISA immunoassay buffer (PerkinElmer GA, USA) is added to the cell lysates and incubated at room temperature for 90 minutes. 5 μL Anti-Mouse IgG Alpha donor beads diluted in 1× AlphaLISA immunoassay buffer (PerkinElmer GA, USA) is added to the reaction mixture and incubated at room temperature for 90 minutes. Upon excitation of these beads with laser light at 680 nm, singlet oxygen is produced. This singlet oxygen is rapidly quenched, unless the AlphaLISA Anti-Rabbit IgG acceptor beads are in close proximity, in which case a proximity signal can be measured at […]. In the presence of cellular CDK8 catalytic activity, there is a very strong proximity signal. Selective CDK8 inhibitors affect a decrease in this proximity signal through a decrease in phosphorylation of STAT1 at serine 727. The percentage inhibition at individual concentrations relative to high and low controls is calculated. The data are analyzed by using nonlinear regression to generate IC50 values.
A general note: Alpha assays give light when donor and acceptor beads are brought close together.
By IC50 is commonly meant the concentration at which inhibition is half-maximal. A low value points to inhibition by little substance. `Cn1ncc2cc(-c3cnn4cccc(C#CC(C)(C)O)c34)ccc21` [Compound P-0414, 2-methyl-4-(3-(1-methyl-1H-indazol-5-yl)pyrazolo(1,5-a]pyridin-4-yl)but-3-yn-2-ol] displayed an IC50 of 0.1 to 100 nM.

`Cn1cc(-c2ccc(-c3cnc4cccc(N5CCN(c6ccccn6)CC5)n34)cc2)cn1` [Compound P-0385, 3-(4-(1-methyl-1H-pyrazol-4-yl)phenyl)-5-(4-(pyridin-2-yl)piperazin-1-yl)imidazo[1,2-a]pyridine]: the half-maximal inhibitory concentration (IC50) was in the range of 1000 to 10000 nM.

In the case of `Cn1cc(-c2ccc(-c3cnn4cccc(-c5cnn(C(=O)OC(C)(C)C)c5)c34)cc2)cn1` [Compound P-0431, tert-butyl 4-(3-(4-(1-methyl-1H-pyrazol-4-yl)phenyl)pyrazolo[1,5-a]pyridin-4-yl)-1H-pyrazole-1-carboxylate], the IC50 is 1000 to 10000 nM.

`Cn1cc(-c2ccc(-c3cnc4cccc(N5CCC(CO)CC5)n34)cc2)cn1` [Compound P-0434, [1-[3-[4-(1-methylpyrazol-4-yl)phenyl]imidazo[1,2-a]pyridin-5-yl]-4-piperidyl]methanol]: the half-maximal inhibitory concentration (IC50) lay in the range of 1000 to 10000 nM.

Consider `N#CC1CCN(c2cccn3ncc(-c4ccc(-c5nc(C(F)(F)F)no5)cc4)c23)CC1` [Compound P-0424, 1-(3-(4-(3-(trifluoromethyl)-1,2,4-oxadiazol-5-yl)phenyl)pyrazolo[1,5-a]pyridin-4-yl)piperidine-4-carbonitrile], for which the half-maximal inhibitory concentration (IC50) was in the range of 1000 to 10000 nM.

`CCC(O)(C#Cc1cccn2ncc(-c3ccc(-c4cnn(C)c4)cc3)c12)CC` [Compound P-0373, 3-ethyl-1-(3-(4-(1-methyl-1H-pyrazol-4-yl)phenyl)pyrazolo[1,5-a]pyridin-4-yl)pent-1-yn-3-ol] came in with an IC50 of 100 to 1000 nM.

On to `Cn1cc(-c2ccc(-c3cnn4cccc(-c5ccnc(C#N)c5)c34)cc2)cn1` [Compound P-0425, 4-[3-[4-(1-methylpyrazol-4-yl)phenyl]pyrazolo[1,5-a]pyridin-4-yl]pyridine-2-carbonitrile], for which the IC50 is 1000 to 10000 nM.

Regarding `Cn1cc(-c2ccc(-c3cnc4cccc(N5CCOCC5)n34)cc2)cn1` [Compound P-0395, 4-(3-(4-(1-methyl-1H-pyrazol-4-yl)phenyl)imidazo[1,2-a]pyridin-5-yl)morpholine], the IC50 fell in the range of 1000 to 10000 nM.

Consider `COC(=O)C1(C)CCN(c2cccc3ncc(-c4ccc(-c5cnn(C)c5)cc4)n23)CC1` [Compound P-0399, methyl 4-methyl-1-(3-(4-(1-methyl-1H-pyrazol-4-yl)phenyl)imidazo[1,2-a]pyridin-5-yl)piperidine-4-carboxylate], for which the IC50 was 1000 to 10000 nM.

`CC(C)(O)C#Cc1cccn2ncc(-c3ccc(Oc4ccccc4)cc3)c12` [Compound P-0410, 2-methyl-4-(3-(4-phenoxyphenyl)pyrazolo[1,5-a]pyridin-4-yl)but-3-yn-2-ol]: the IC50 was in the range of 1000 to 10000 nM.

The molecule `N#CC1CCN(c2cccc3ncc(-c4ccc(CNC(=O)c5cccnc5)cc4)n23)CC1` [Compound P-0448, N-(4-(5-(4-cyanopiperidin-1-yl)imidazo[1,2-a]pyridin-3-yl)benzyl)nicotinamide] showed an IC50 of 1000 to 10000 nM.

`Cn1cc(-c2ccc(-c3cnc4cccc(N5CCNCC5)n34)cc2)cn1` [Compound P-0393, 3-(4-(1-methyl-1H-pyrazol-4-yl)phenyl)-5-(piperazin-1-yl)imidazo[1,2-a]pyridine] came in with an IC50 of 1000 to 10000 nM.

Regarding `CC(=O)NC(C)(C)C#Cc1cccn2ncc(-c3ccc(-c4cnn(C)c4)cc3)c12` [Compound P-0307, N-(2-methyl-4-(3-(4-(1-methyl-1H-pyrazol-4-yl)phenyl)pyrazolo[1,5-a]pyridin-4-yl)but-3-yn-2-yl)acetamide], the IC50 is 100 to 1000 nM.

On to `Cn1cc(-c2ccc(-c3cnn4cccc(C5CCC(C#N)CC5)c34)cc2)cn1` (stereo not drawn) [Compound P-0347, 4-(3-(4-(1-methyl-1H-pyrazol-4-yl)phenyl)pyrazolo[1,5-a]pyridin-4-yl)cyclohexane-1-carbonitrile], for which the IC50 fell in the range of 100 to 1000 nM.

Take `Cn1cc(-c2ccc(-c3cnc4cccc(N5CCC(C(N)=O)CC5)n34)cc2)cn1` [Compound P-0400, 1-(3-(4-(1-methyl-1H-pyrazol-4-yl)phenyl)imidazo[1,2-a]pyridin-5-yl)piperidine-4-carboxamide]: the IC50 fell in the range of 100 to 1000 nM.

`Cn1cc(-c2ccc(-c3cnc4cccc(N5CCN(c6nccs6)CC5)n34)cc2)cn1` [Compound P-0383, 2-(4-(3-(4-(1-methyl-1H-pyrazol-4-yl)phenyl)imidazo[1,2-a]pyridin-5-yl)piperazin-1-yl)thiazole]: the IC50 lay within 1000 to 10000 nM.

`CCOC(=O)C1CCN(c2cccc3ncc(-c4ccc(-c5cnn(C)c5)cc4)n23)CC1` [Compound P-0447, ethyl 1-(3-(4-(1-methyl-1H-pyrazol-4-yl)phenyl)imidazo[1,2-a]pyridin-5-yl)piperidine-4-carboxylate] yielded an IC50 of 0.1 to 100 nM.

In turn, `CCOC(=O)C1CC=C(c2cccn3ncc(-c4ccc(-c5cnn(C)c5)cc4)c23)CC1` (stereo not drawn) [Compound P-0446, ethyl 4-(3-(4-(1-methyl-1H-pyrazol-4-yl)phenyl)pyrazolo[1,5-a]pyridin-4-yl)cyclohex-3-ene-1-carboxylate] displayed an IC50 of 100 to 1000 nM.

In turn, `CC(C)(C)OC(=O)N1CCC(Oc2cccc3ncc(-c4ccc(-c5cnn(C(F)F)c5)cc4)n23)CC1` [Compound P-0306, tert-butyl 4-((3-(4-(1-(difluoromethyl)-1H-pyrazol-4-yl)phenyl)imidazo[1,2-a]pyridin-5-yl)oxy)piperidine-1-carboxylate] displayed an IC50 of 1000 to 10000 nM.

Molecule `Cc1noc(-c2ccc(-c3cnn4cccc(N5CCC(C#N)(c6ccccn6)CC5)c34)cc2)n1` [Compound P-0351, 1-(3-(4-(3-methyl-1,2,4-oxadiazol-5-yl)phenyl)pyrazolo[1,5-a]pyridin-4-yl)-4-(pyridin-2-yl)piperidine-4-carbonitrile] yielded an IC50 of 100 to 1000 nM.

Take `Cn1ncc2cc(-c3nnc4cccc(C5=CCC(C#N)CC5)n34)ccc21` (stereo not drawn) [Compound P-0345, 4-(3-(1-methyl-1H-indazol-5-yl)-[1,2,4]triazolo[4,3-a]pyridin-5-yl)cyclohex-3-ene-1-carbonitrile]: the IC50 lay within 1000 to 10000 nM.

`Cn1cc(-c2ccc(-c3cnn4cccc(N5CCC(C#N)CC5)c34)cc2)cn1` [Compound P-0422, 1-(3-(4-(1-methyl-1H-pyrazol-4-yl)phenyl)pyrazolo[1,5-a]pyridin-4-yl)piperidine-4-carbonitrile] came in with an IC50 of 0.1 to 100 nM.

On to `Cc1nn(C)c(C)c1-c1ccc(-c2cnn3cccc(C#CC(C)(C)O)c23)cc1` [Compound P-0236, 2-methyl-4-(3-(4-(1,3,5-trimethyl-1H-pyrazol-4-yl)phenyl)pyrazolo[1,5-a]pyridin-4-yl)but-3-yn-2-ol], for which the half-maximal inhibitory concentration (IC50) was 1000 to 10000 nM.

Molecule `Cn1cc(C#Cc2cnc3cccc(N4CCC5(CC4)COC5)n23)cn1` [Compound P-0354, 7-(3-((1-methyl-1H-pyrazol-4-yl)ethynyl)imidazo[1,2-a]pyridin-5-yl)-2-oxa-7-azaspiro[3.5]nonane] returned an IC50 of 1000 to 10000 nM.

Molecule `N#CC1CCN(c2cccc3ncc(-c4ccc(-c5cnn(C(F)F)c5)cc4)n23)CC1` [Compound P-0440, 1-(3-(4-(1-(difluoromethyl)-1H-pyrazol-4-yl)phenyl)imidazo[1,2-a]pyridin-5-yl)piperidine-4-carbonitrile] gave an IC50 of 0.1 to 100 nM.

Regarding `COC(=O)N1CCC(Oc2cccc3ncc(-c4ccc(-c5cnn(C(F)F)c5)cc4)n23)CC1` [Compound P-0291, methyl 4-((3-(4-(1-(difluoromethyl)-1H-pyrazol-4-yl)phenyl)imidazo[1,2-a]pyridin-5-yl)oxy)piperidine-1-carboxylate], the IC50 lay in the range of 100 to 1000 nM.

The molecule `Cn1cc(-c2ccc(-c3cnc4cccc(N5CCC(C(O)c6cccnc6)CC5)n34)cc2)cn1` (stereo not drawn) [Compound P-0384, (1-(3-(4-(1-methyl-1H-pyrazol-4-yl)phenyl)imidazo[1,2-a]pyridin-5-yl)piperidin-4-yl)(pyridin-3-yl)methanol] came in with an IC50 of 1000 to 10000 nM.

Turning to `FC(F)n1cc(-c2ccc(-c3cnc4cccc(OC5CCNCC5)n34)cc2)cn1` [Compound P-0305, 3-(4-(1-(difluoromethyl)-1H-pyrazol-4-yl)phenyl)-5-(piperidin-4-yloxy)imidazo[1,2-a]pyridine], the IC50 was 1000 to 10000 nM.

Regarding `Cn1cc(-c2ccc(-c3cnc4cccc(C#CC(C)(C)O)n34)cc2)cn1` [Compound P-0375, 2-methyl-4-(3-(4-(1-methyl-1H-pyrazol-4-yl)phenyl)imidazo[1,2-a]pyridin-5-yl)but-3-yn-2-ol], the concentration for half-maximal inhibition (IC50) was in the range of 0.1 to 100 nM.

In turn, `Cn1cc(-c2ccc(-c3cnc4cccc(N5CCCCC5)n34)cc2)cn1` [Compound P-0381, 3-(4-(1-methyl-1H-pyrazol-4-yl)phenyl)-5-(piperidin-1-yl)imidazo[1,2-a]pyridine] came in with a concentration for half-maximal inhibition (IC50) of 1000 to 10000 nM.

These data come from patent publication US10703757B2, “Compounds and methods for CDK8 modulation and indications therefor” (Plexxikon Inc., priority 2016, dated 2020).
